According to patent EP4799624A2 (priority 2021, dated 2023):
≈ marks a conversion by molar mass, not a printed value. Where two headings read alike, the source gives them in different places.

Key:
SARS-CoV-2 [1] = conditions: for activity in the HeLa-ACE2 cell-based SARS-CoV-2 assay: 35 ActivPred compounds tested; for Nh (Hill) coefficient: dose curves fitted with the four parameter Hill Equation
[2] = in vivo, cited from earlier work
SARS-CoV-2 [3] = conditions: Day 4, cited from earlier work
SARS-CoV-2/WA1 = type: cell-based, SARS-CoV-2 isolate USA-WA1/2020; conditions: Severe acute respiratory syndrome coronavirus 2, HeLa-ACE2, read-out: SARS-CoV-2 IC50 value
A/WSN/33 = assay: Influenza antiviral assay (IF-based) in A549 cells; type: cell-based, H1N1 influenza A virus; conditions: Influenza A virus, A549, 24 h
[4] = for adverse reactions / clinical signs: PO 50 and 250 mg/kg, single and 5 days, female 129S1 mice; for Mean: mean of 3 mice (± SD in Table 16); for AUC∞: extrapolated to ∞
[5] = rat, in vivo
COVID-19 = conditions: ReFRAME study A00473; cited from earlier work
SARS-CoV-2 [6] = conditions: cited from earlier work
in vivo = conditions: rat, po, 1000 mg/kg
[7] = single oral doses 1-200 mg; cited from earlier work
[8] = range for all doses (10-200 mg), human plasma, cited from earlier work
[9] = ReFRAME study A00511; cited from earlier work
[10] = rat and monkey studies; cited from earlier work
[11] = human liver slices and microsomes; cited from earlier work
[12] = values compared in Example 2; cited from earlier work
SARS-CoV-2 [13] = assay: microbe, parasite or virus in culture
SARS-CoV-2 [14] = conditions: same methods as used in this study; cited from earlier work
Ebola VLP entry = conditions: cited from earlier work
[15] = lung, 250 mg/kg PO five consecutive days (Group 2, MD)
[16] = plasma, 50 mg/kg PO five consecutive days (Group 1, MD)
[17] = plasma, 50 mg/kg PO single dose (Group 1, SD)
[18] = plasma, 50 mg/kg PO single dose (Group 1, SD), 50 mg/kg
[19] = plasma, 250 mg/kg PO five consecutive days (Group 2, MD)
[20] = plasma, 250 mg/kg PO single dose (Group 2, SD)
[21] = Severe acute respiratory syndrome coronavirus 2, HeLa-ACE2, 24 h

Cc1c2c(nn1C)CSCc1cc(n(C)n1)CSc1cc(c3ccccc3c1)OCCCc1c(C(=O)O)n(C)c3c-2c(Cl)ccc13 [AZD-5991]
activity in the HeLa-ACE2 cell-based SARS-CoV-2 assay (SARS-CoV-2 [1]): demonstrated activity

Cc1c(-c2ccc(O)cc2)n(Cc2ccc(OCCN3CCCCCC3)cc2)c2ccc(O)cc12 [Bazedoxifene, reference compound]
dose safely tolerated ([2]; human): 20 mg/day
dose safely tolerated ([2]; rat): 100 mg/kg/day

CNCc1ccc(-c2cc(-c3nc(-c4ccc(S(=O)(=O)C(C)C)cc4)cnc3N)on2)cc1 [Berzosertib, reference compound]
activity in the HeLa-ACE2 cell-based SARS-CoV-2 assay (SARS-CoV-2 [1]): demonstrated activity
Nh (Hill) coefficient (SARS-CoV-2 [1]): 1.485

CC(C)(C)[C@H](NC(=O)C(F)(F)F)C(=O)N1C[C@H]2[C@@H]([C@H]1C(=O)N[C@H](C#N)C[C@@H]1CCNC1=O)C2(C)C [Nirmatrelvir]
log reduction in viral load (SARS-CoV-2 [3]; 300 mg/kg): 1.4 log
reduction in viral load (SARS-CoV-2 [3]; 1000 mg/kg BID): 1.91 log10 CCID50/mL
log reduction in viral load (SARS-CoV-2 [3]; 1000 mg/kg): 1.9 log

COc1cc(Cl)cc(C(C)Nc2cc(N3CCNCC3)ccc2S(C)(=O)=O)c1OC.Cl (stereo not drawn) [PRX-07034]
activity in the HeLa-ACE2 cell-based SARS-CoV-2 assay (SARS-CoV-2 [1]): demonstrated activity

Cc1c(-c2ccc(O)cc2)n(Cc2ccc(OCCN3CCCCC3)cc2)c2ccc(O)cc12 [Pipendoxifene, 2-(4-hydroxyphenyl)-3-methyl-1-[[4-(2-piperidin-1-ylethoxy)phenyl]methyl]indol-5-ol]
IC50 (SARS-CoV-2/WA1): 0.328 µg/mL (≈ 0.718 µM)
IC50 (A/WSN/33): 7.49 µM
EC50 (SARS-CoV-2 [1]): 8.24 µM
activity in the HeLa-ACE2 cell-based SARS-CoV-2 assay (SARS-CoV-2 [1]): demonstrated activity
Nh (Hill) coefficient (SARS-CoV-2 [1]): 4
EC50 (SARS-CoV-2 [1]; listed as pipendoxifene): 8.42 µM
Average plasma concentration ([4]; Group 2, MD (multiple, 5-day, dose) 250 mg/kg oral, 8.0 hr): 575 ± 194 ng/mL
adverse reactions / clinical signs [4]: no adverse events at doses up to 250mg/kg
adverse reactions / clinical signs ([4]; listed as pipendoxifene): No adverse reactions were observed
Conc. ([4]; lung tissue, individual mice, 50 mg/kg PO single dose, 8.0 hr, 50 mg/kg, 480 min): 7840 ng/g
Mean ([4]; lung tissue, 50 mg/kg PO five consecutive days, 8.0 hr, 50 mg/kg, 480 min): 5613 ± 1602 ng/g
Mean ([4]; lung tissue, 50 mg/kg PO single dose, 4.0 hr, 50 mg/kg, 240 min): 8310 ± 630 ng/g
Mean ([4]; lung tissue, 250 mg/kg PO five consecutive days, 4.0 hr, 250 mg/kg, 240 min): 39000 ± 15321 ng/g
Mean ([4]; lung tissue, 250 mg/kg PO single dose, 8.0 hr, 250 mg/kg, 480 min): 24733 ± 17321 ng/g
tmax ([4]; lung, 50 mg/kg PO five consecutive days (Group 1, MD)): 8.0 h
MRTlast [4, 15]: 7.22 h
tmax [4, 15]: 4.0 h
tmax ([4]; lung, 250 mg/kg PO single dose (Group 2, SD)): 8.0 h
plasma t1/2 ([4]; mouse, in vivo, po): 2.36 to 3.96 h
MRTlast [4, 16]: 7.10 h
t1/2 [4, 16]: 2.58 h
tmax [4, 16]: 6.0 h
AUClast (hr·ng/mL) ± SE ([4]; plasma, 50 mg/kg PO five consecutive days (Group 1, MD), 50 mg/kg): 1391 ± 55 ng·h/mL
AUC∞ [4, 16]: 1396 ng·h/mL
MRTlast [4, 17]: 6.95 h
t1/2 [4, 17]: 2.36 h
tmax [4, 17]: 2.0 h
AUClast (hr·ng/mL) ± SE [4, 18]: 1600 ± 115 ng·h/mL
Cmax (ng/mL) ± SE [4, 18]: 179 ± 21 ng/mL
AUC∞ [4, 17]: 1602 ng·h/mL
t1/2 [4, 19]: 2.52 h
tmax [4, 19]: 6.0 h
AUClast (hr·ng/mL) ± SE ([4]; plasma, 250 mg/kg PO five consecutive days (Group 2, MD), 250 mg/kg): 11628 ± 1191 ng·h/mL
AUC∞ [4, 19]: 11664 ng·h/mL
MRTlast [4, 20]: 8.86 h
t1/2 [4, 20]: 3.96 h
tmax [4, 20]: 6.0 h
Cmax (ng/mL) ± SE ([4]; plasma, 250 mg/kg PO single dose (Group 2, SD), 250 mg/kg): 1020 ± 693 ng/mL
AUC∞ [4, 20]: 10461 ng·h/mL
Mean ([4]; plasma, 50 mg/kg PO five consecutive days, 1.0 hr, 50 mg/kg, 60 min): 56.0 ± 20.7 ng/mL
Mean ([4]; plasma, 50 mg/kg PO single dose, 2.0 hr, 50 mg/kg, 120 min): 179 ± 37 ng/mL
Mean ([4]; plasma, 250 mg/kg PO five consecutive days, 8.0 hr, 250 mg/kg, 480 min): 575 ± 194 ng/mL
Mean ([4]; plasma, 250 mg/kg PO single dose, 6.0 hr, 250 mg/kg, 360 min): 1020 ± 1200 ng/mL
Cmax [5]: 311 1 42 ng/mL
Lung C24h exceeding the IC50 value [5]: 5.4 fold
plasma t1/2 ([5]; po): 4.71 to 6.06 h
AUClast ± SE ([5]; po, 250 mg/kg): 3515 ± 980 ng·h/mL
AUClast ± SE ([5]; po, 750 mg/kg): 5260 ± 1970 ng·h/mL
result in COVID-19 Cytopathic Effect (CPE) Assay (COVID-19): INACTIVE
result in SARS-CoV-2/HeLa-ACE2 HCI assay - % infected cells (SARS-CoV-2 [6]): INACTIVE
concentration at 6 h (in vivo): 501 ng/mL
tolerability [7]: well tolerated with only mild transient adverse events observed at all doses
mean terminal t1/2 [8]: 15.8 to 27.3 h
mean terminal t1/2 ([8]; listed as pipendoxifene): 15.8 to 27.3 h
result in SARS CoV-2 CPE Cytotoxicity Assay [9]: INACTIVE
primary metabolite [10]: primarily metabolized to an indole glucuronide
primary human metabolite [11]: the same indole glucuronide as found in the preclinical models
t ½ [12]: 15.8 to 27.3 h
dose safely tolerated ([2]; human): up to 200 mg/daily
dose safely tolerated ([2]; mouse): at least 20 mg/kg/day
EC90 (SARS-CoV-2 [13]; Severe acute respiratory syndrome coronavirus 2, HeLa-ACE2): 14.3 µM
EC10 (SARS-CoV-2 [13]; [21]): 5.01 µM
EC50 (SARS-CoV-2 [13]; [21]): < 9.6 µM
EC90 (SARS-CoV-2 [13]; Severe acute respiratory syndrome coronavirus 2, HeLa-ACE2, calculated with the Hill equation (Equation I) from nH 4 and EC10): 15 µM
EC90 (SARS-CoV-2 [13]; Severe acute respiratory syndrome coronavirus 2, HeLa-ACE2, read-out: EC90 range, range from Equations I and II): 14.3 to 15 µM

CCC(CC)COC(=O)[C@H](C)N[P@](=O)(OC[C@H]1O[C@@](C#N)(c2ccc3c(N)ncnn23)[C@H](O)[C@@H]1O)Oc1ccccc1 [Remdesivir, reference compound]
increase in EC50 from MOI=1 to MOI=26 (SARS-CoV-2 [1]): 2.7 fold
t ½ [12]: 1 h
EC50 (SARS-CoV-2 [13]; [21]): 0.13 µM

Cc1cccc(/C=N/Nc2cc(N3CCOCC3)nc(OCCc3ccccn3)n2)c1 [apilimod, reference compound]
increase in EC50 from MOI=1 to MOI=26 (SARS-CoV-2 [1]): 3.7 fold
Emax (SARS-CoV-2 [13]; Severe acute respiratory syndrome coronavirus 2, HeLa-ACE2, read-out: maximal efficacy): 85 to 90%

COc1ccc(C[C@H](N)C(=O)N[C@H]2[C@@H](O)[C@H](n3cnc4c(N(C)C)ncnc43)O[C@@H]2CO)cc1 [puromycin, reference compound]
EC50 (SARS-CoV-2 [13]; Severe acute respiratory syndrome coronavirus 2, HeLa-ACE2, […], average ± sem of 5 independent experiments): 0.547 ± 0.027 µM

O=C(c1ccc(OCCN2CCCCC2)cc1)c1c(-c2ccc(O)cc2)sc2cc(O)ccc12 [raloxifene]
EC50 (SARS-CoV-2 [14]): 4.13 µM
SI (Ebola VLP entry; Ebola VLP entry): > 10
IC50 (Ebola VLP entry; speculated active compounds, read-out: IC50, block of Ebola VLP entry in vitro): < 10 µM

Nc1ncnc2c1nc(Cl)n2[C@@H]1O[C@@H]2COP(=O)(O)O[C@H]2[C@H]1O [tocladesine]
activity in the HeLa-ACE2 cell-based SARS-CoV-2 assay (SARS-CoV-2 [1]): demonstrated activity
